# Laboratory results from patent publication US8134015B2, “Compound inhibiting in vivo phosphorous transport and medicine containing the same” (Kyowa Hakko Kirin Co., Ltd., priority 2003, dated 2012).
# Structures can show the parent of a compound that is named as a salt.
# Target: T1, rat NaPi-2b (Rattus norvegicus, UniProt Q9JJ09)
# T1 construct: expressed in transfected cells; host or cells: Xenopus oocytes injected with cRNA
# T1 sequence (Q9JJ09 1-695): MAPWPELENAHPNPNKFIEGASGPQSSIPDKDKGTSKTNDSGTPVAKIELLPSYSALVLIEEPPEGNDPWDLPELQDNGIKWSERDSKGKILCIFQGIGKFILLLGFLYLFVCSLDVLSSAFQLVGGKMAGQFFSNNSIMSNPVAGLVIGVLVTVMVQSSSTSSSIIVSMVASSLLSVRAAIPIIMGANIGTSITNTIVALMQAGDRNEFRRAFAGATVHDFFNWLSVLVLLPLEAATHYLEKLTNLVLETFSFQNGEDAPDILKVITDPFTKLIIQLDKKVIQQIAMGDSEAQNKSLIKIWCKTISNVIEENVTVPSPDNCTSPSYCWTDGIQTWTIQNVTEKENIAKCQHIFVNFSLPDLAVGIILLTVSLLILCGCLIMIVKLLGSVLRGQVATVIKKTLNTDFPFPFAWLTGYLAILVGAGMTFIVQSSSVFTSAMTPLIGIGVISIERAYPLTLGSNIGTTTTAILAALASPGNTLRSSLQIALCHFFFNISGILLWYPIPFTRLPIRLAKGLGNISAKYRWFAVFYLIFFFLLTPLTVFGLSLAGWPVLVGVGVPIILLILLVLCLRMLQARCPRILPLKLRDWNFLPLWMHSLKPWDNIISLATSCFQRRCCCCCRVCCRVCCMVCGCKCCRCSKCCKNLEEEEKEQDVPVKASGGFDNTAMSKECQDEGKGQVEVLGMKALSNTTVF
# Assay: Sodium-dependent phosphate uptake of Xenopus oocytes which expressed NaPi-2b (32P)
# Assay type: cell-based
# Details: Xenopus oocytes expressing rat NaPi-2b, 32P radioactive phosphorus; read-out: IC50 (phosphate uptake inhibitory activity)
# How it was run: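 Oocytes injected with rat NaPi-2b cRNA, cultured 2 d, then 32P uptake measured with compound. Values: % inhibition at 300 and 100 μM, both from one inhibition curve.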
row,SMILES,IC50 [µM]
1,"Cc1ccc(/C=N/NC(=O)c2c(NC(=O)c3cccc(CN4CCC(CO)CC4)c3)sc3ccccc23)cc1 [Compound 799, 3-(4-Hydroxymethyl-piperidin-1-ylmethyl)-N-[3-(4-methyl-benzylidene-hydrazinocarbonyl)-benzo[b]thiophen-2-yl]-benzamide]",3.72
2,"COc1ccc(/C=N/NC(=O)c2c(NC(=O)c3cccc(CN4CCC(CO)CC4)c3)sc3ccccc23)cc1 [Compound 803, 3-(4-Hydroxymethyl-piperidin-1-ylmethyl)-N-[3-(4-methoxy-benzylidene-hydrazinocarbonyl)-benzo[b]thiophen-2-yl]-benzamide]",4.92
3,"Cc1ccc(/C=N/NC(=O)c2c(NC(=O)c3cccc(CN(CC(C)O)CC(C)O)c3)sc3c2CCC3)cc1C (stereo not shown) [Compound 804, 3-{[Bis-(2-hydroxy-propyl)-amino]-methyl}-N-[3-(3,4-dimethyl-benzylidene-hydrazinocarbonyl)-5,6-dihydro-4H-cyclopenta[b]thiophen-2-yl]-benzamide]",1.23
4,"Cc1ccc(/C=N/NC(=O)c2c(NC(=O)c3cccc(CN(CC(C)O)CC(C)O)c3)sc3c2CCC3)cc1 (stereo not shown) [Compound 805, 3-{[Bis-(2-hydroxy-propyl)-amino]-methyl}-N-[3-(4-methyl-benzylidene-hydrazinocarbonyl)-5,6-dihydro-4H-cyclopenta[b]-thiophen-2-yl]-benzamide]",4.76
5,"CC(O)CN(Cc1cccc(C(=O)Nc2sc3c(c2C(=O)N/N=C/c2ccc(Cl)c(C(F)(F)F)c2)CCC3)c1)CC(C)O (stereo not shown) [Compound 808, 3-{[Bis-(2-hydroxy-propyl)-amino]-methyl}-N-[3-(4-chloro-3-trifluoromethyl-benzylidene-hydrazinocarbonyl)-5,6-dihydro-4H-cyclopenta[b]thiophen-2-yl]-benzamide]",1.97
6,"COc1ccc(/C=N/NC(=O)c2c(NC(=O)c3cccc(CN(CC(C)O)CC(C)O)c3)sc3c2CCC3)cc1 (stereo not shown) [Compound 809, 3-{[Bis-(2-hydroxy-propyl)-amino]-methyl}-N-[3-(4-methoxy-benzylidene-hydrazinocarbonyl)-5,6-dihydro-4H-cyclopenta[b]thiophen-2-yl]-benzamide]",5.22
7,"CCN(CC)CCNCc1cccc(C(=O)Nc2sc3c(c2C(=O)N/N=C/c2cccc(F)c2)CCC3)c1 [Compound 812, 3-[(2-Diethylamino-ethylamino)-methyl]-N-[3-(3-fluoro-benzylidene-hydrazinocarbonyl)-5,6-dihydro-4H-cyclopenta[b]thiophen-2-yl]-benzamide]",5.58
8,"CCN(CC)CCNCc1cccc(C(=O)Nc2sc3c(c2C(=O)N/N=C/c2ccc(OC)cc2)CCC3)c1 [Compound 815, 3-[(2-Diethylamino-ethylamino)-methyl]-N-[3-(4-methoxy-benzylidene-hydrazinocarbonyl)-5,6-dihydro-4H-cyclopenta[b]thiophen-2-yl]-benzamide]",16.7
9,"Cc1ccc(/C=N/NC(=O)c2c(NC(=O)c3cccc(CN4CCC(CO)CC4)c3)sc3c2CCC3)cc1C [Compound 816, N-[3-(3,4-Dimethyl-benzylidene-hydrazinocarbonyl)-5,6-dihydro-4H-cyclopenta[b]thiophen-2-yl]-3-(4-hydroxymethyl-piperidin-1-ylmethyl)-benzamide]",14.8
10,"Cc1ccc(/C=N/NC(=O)c2c(NC(=O)c3cccc(CN4CCC(CO)CC4)c3)sc3c2CCC3)cc1 [Compound 817, 3-(4-Hydroxymethyl-piperidin-1-ylmethyl)-N-[3-(4-methyl-benzylidene-hydrazinocarbonyl)-5,6-dihydro-4H-cyclopenta[b]thiophen-2-yl]-benzamide]",36.1
11,"O=C(Nc1sc2c(c1C(=O)N/N=C/c1cccc(F)c1)CCC2)c1cccc(CN2CCC(CO)CC2)c1 [Compound 819, N-[3-(3-Fluoro-benzylidene-hydrazinocarbonyl)-5,6-dihydro-4H-cyclopenta[b]thiophen-2-yl]-3-(4-hydroxymethyl-piperidin-1-ylmethyl)-benzamide]",5.95
12,"O=C(Nc1sc2c(c1C(=O)N/N=C/c1ccc(Cl)c(C(F)(F)F)c1)CCC2)c1cccc(CN2CCC(CO)CC2)c1 [Compound 820, N-[3-(4-Chloro-3-trifluoromethyl-benzylidene-hydrazinocarbonyl)-5,6-dihydro-4H-cyclopenta[b]thiophen-2-yl]-3-(4-hydroxymethyl-piperidin-1-ylmethyl)-benzamide]",17.9
13,"COc1ccc(/C=N/NC(=O)c2c(NC(=O)c3cccc(CN4CCC(CO)CC4)c3)sc3c2CCC3)cc1 [Compound 821, 3-(4-Hydroxymethyl-piperidin-1-ylmethyl)-N-[3-(4-methoxy-benzylidene-hydrazinocarbonyl)-5,6-dihydro-4H-cyclopenta[b]thiophen-2-yl]-benzamide]",17.9
14,"Cc1ccc(/C=N/NC(=O)c2c(C)csc2NC(=O)c2cccc(CN(C)C)c2)cc1 [Compound 823, 3-Dimethylaminomethyl-N-[4-methyl-3-(4-methyl-benzylidene-hydrazinocarbonyl)-thiophen-2-yl]-benzamide]",6.93

# The remaining lines, values ahead:
row,IC50 [µM],SMILES
1,4.52,"COc1ccc(/C=N/NC(=O)c2c(C)csc2NC(=O)c2cccc(CN(C)C)c2)cc1 [Compound 825, 3-Dimethylaminomethyl-N-[3-(4-methoxy-benzylidene-hydrazinocarbonyl)-4-methyl-thiophen-2-yl]-benzamide]"
2,4.44,"Cc1ccc(/C=N/NC(=O)c2c(C)csc2NC(=O)c2cccc(CN3CCN(c4ncccn4)CC3)c2)cc1C [Compound 826, N-[3-(3,4-Dimethyl-benzylidene-hydrazinocarbonyl)-4-methyl-thiophen-2-yl]-3-(4-pyrimidin-2-yl-piperazin-1-ylmethyl)-benzamide]"
3,12.9,"COc1ccc(/C=N/NC(=O)c2c(C)csc2NC(=O)c2cccc(CN3CCC4(CC3)OCCO4)c2)cc1 [Compound 837, 3-(1,4-Dioxa-8-aza-spiro[4,5]dec-8-ylmethyl]-N-[3-(4-methoxy-benzylidene-hydrazinocarbonyl)-4-methyl-thiophen-2-yl]-benzamide]"
4,3.22,"CCN(CC)CCN(CCN(CC)CC)Cc1cccc(C(=O)Nc2scc(C)c2C(=O)N/N=C/c2ccc(Cl)c(C(F)(F)F)c2)c1 [Compound 842, 3-{[Bis-(2-diethylamino-ethyl)-amino]-methyl}-N-[3-(4-chloro-3-trifluoromethyl-benzylidene-hydrazinocarbonyl)-4-methyl-thiophen-2-yl]-benzamide]"
5,4.19,"CCN(CC)CCN(CCN(CC)CC)Cc1cccc(C(=O)Nc2scc(C)c2C(=O)N/N=C/c2ccc(OC)cc2)c1 [Compound 843, 3-{[Bis-(2-diethylamino-ethyl)-amino]-methyl}-N-[3-(4-methoxy-benzylidene-hydrazinocarbonyl)-4-methyl-thiophen-2-yl]-benzamide]"
6,< 3,"Cc1ccc(/C=N/NC(=O)c2c(NC(=O)c3cccc(CN(CC(C)O)CC(C)O)c3)sc(C)c2C)cc1C (stereo not shown) [Compound 844, 3-{[Bis-(2-hydroxy-propyl)-amino]-methyl}-N-[3-(3,4-dimethyl-benzylidene-hydrazinocarbonyl)-4,5-dimethyl-thiophen-2-yl]-benzamide]"
7,< 3,"Cc1sc(NC(=O)c2cccc(CN(CC(C)O)CC(C)O)c2)c(C(=O)N/N=C/c2ccc(Cl)c(C(F)(F)F)c2)c1C (stereo not shown) [Compound 847, 3-{[Bis-(2-hydroxy-propyl)-amino]-methyl}-N-[3-(4-chloro-3-trifluoromethyl-benzylidene-hydrazinocarbonyl)-4,5-dimethyl-thiophen-2-yl]-benzamide]"
8,2.2,"COc1ccc(/C=N/NC(=O)c2c(NC(=O)c3cccc(CN(CC(C)O)CC(C)O)c3)sc(C)c2C)cc1 (stereo not shown) [Compound 848, 3-{[Bis-(2-hydroxy-propyl)-amino]-methyl}-N-[3-(4-methoxy-benzylidene-hydrazinocarbonyl)-4,5-dimethyl-thiophen-2-yl]-benzamide]"
9,< 3,"CCN(CC)CCN(CCN(CC)CC)Cc1cccc(C(=O)Nc2sc3c(c2C(=O)N/N=C/c2ccc(Cl)c(C(F)(F)F)c2)CCCC3)c1 [Compound 849, 3-{[Bis-(2-diethylamino-ethyl)-amino]-methyl}-N-[3-(4-chloro-3-trifluoromethyl-benzylidene-hydrazinocarbonyl)-4,5,6,7-tetrahydro-benzo[b]thiophen-2-yl]-benzamide]"
10,3.1,"CCN(CC)CCN(CCN(CC)CC)Cc1cccc(C(=O)Nc2sc3c(c2C(=O)N/N=C/c2ccc(OC)cc2)CCCC3)c1 [Compound 850, 3-{[Bis-(2-diethylamino-ethyl)-amino]-methyl}-N-[3-(4-methoxy-benzylidene-hydrazinocarbonyl)-4,5,6,7-tetrahydro-benzo[b]-thiophen-2-yl]-benzamide]"
11,1.36,"Cc1csc(NC(=O)c2cccc(CN(CC(C)O)CC(C)O)c2)c1C(=O)N/N=C/c1ccc(Cl)c(C(F)(F)F)c1 (stereo not shown) [Compound 851, 3-{[Bis-(2-hydroxy-propyl)-amino]-methyl}-N-[3-(4-chloro-3-trifluoromethyl-benzylidene-hydrazinocarbonyl)-4-methyl-thiophen-2-yl]-benzamide; hydrochloride]"
